# In ChEMBL document CHEMBL4052774, “Design, synthesis, molecular modeling and anti-hyperglycemic evaluation of quinazolin-4(3H)-one derivatives as potential PPARγ and SUR agonists” (Bioorg Med Chem, 2017):
# pEC50, pIC50: −log10 of the molar value.
# How the values were obtained:
# [1] = Agonist activity at SUR in Wistar rat pancreatic islets assessed as increase in insulin secretion at 5 to 20 uM incubated for 1 hr followed by glucose addition for 30 mins by quantitative sandwich enzyme immunoassay
# [2] = target: T1, Peroxisome proliferator-activated receptor gamma (Homo sapiens, UniProt P37231); assay: Displacement of fluormone-PPARgamma green from GST-tagged PPARgamma-LBD (unknown origin) by fluorescence polarization assay; conditions: for pIC50: read-out: IC50
# T1 sequence (P37231 whole entry): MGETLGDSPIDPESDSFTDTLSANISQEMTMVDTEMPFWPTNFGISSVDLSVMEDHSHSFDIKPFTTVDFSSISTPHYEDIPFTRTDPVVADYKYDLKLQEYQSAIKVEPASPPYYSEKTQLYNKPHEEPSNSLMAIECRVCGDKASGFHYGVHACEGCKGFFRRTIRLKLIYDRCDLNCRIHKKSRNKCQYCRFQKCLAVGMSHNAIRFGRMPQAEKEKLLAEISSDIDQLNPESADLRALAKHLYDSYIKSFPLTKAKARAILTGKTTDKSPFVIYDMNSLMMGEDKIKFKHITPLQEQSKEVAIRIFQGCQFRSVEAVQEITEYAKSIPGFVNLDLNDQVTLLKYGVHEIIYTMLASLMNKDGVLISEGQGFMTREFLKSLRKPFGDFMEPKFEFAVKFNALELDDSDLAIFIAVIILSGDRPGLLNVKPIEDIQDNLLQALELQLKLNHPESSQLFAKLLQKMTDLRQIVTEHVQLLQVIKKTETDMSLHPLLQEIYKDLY
# Rattus norvegicus = assay: Antihyperglycemic activity in streptozotocin-induced diabetic Swiss albino rat assessed as decrease in blood glucose level at 20 mg/kg, po measured up to 3 hrs post dose relative to control; format: functional; set-up: scale not given: the % may be the effect or the level left
SMILES,pEC50 [1],pIC50 [2],Activity (Rattus norvegicus) [%],IC50 [2]
Cc1ccc(-n2c(SCC(=O)Nc3ccc(S(=O)(=O)NC(=O)NC4CCCCC4)cc3)nc3ccccc3c2=O)cc1,5.88,6.40,40.43,
O=C(NC1CCCCC1)NS(=O)(=O)c1ccc(CCNS(=O)(=O)c2ccc(Br)cc2)cc1,,5.62,,
CCCCNC(=O)NS(=O)(=O)c1ccc(NC(=O)Cn2c(C)nc3ccc(Br)cc3c2=O)cc1,,,28.25,
CCCCNC(=S)NS(=O)(=O)c1ccc(NC(=O)Cn2c(=O)c(C)nc3ccccc32)cc1,,5.40,,
Cc1ccc(S(=O)(=O)NCCc2ccc(S(=O)(=O)NC(=S)Nc3ccc(Cl)cc3)cc2)cc1,,,,Not Active
CCCCNC(=O)NS(=O)(=O)c1ccc(NC(=O)Cn2c(C)nc3ccccc3c2=O)cc1,5.54,6.01,29.22,
COc1ccc(-n2c(SCC(=O)Nc3ccc(S(=O)(=O)NC(=O)NC4CCCCC4)cc3)nc3ccccc3c2=O)cc1,6.01,6.46,46.42,
Cc1ccc(NC(=S)NS(=O)(=O)c2ccc(CCNS(=O)(=O)c3ccc(C)cc3)cc2)cc1,,,,Not Active
CCCCNC(=O)NS(=O)(=O)c1ccc(NC(=O)Cn2c(CC)nc3ccccc3c2=O)cc1,5.60,6.39,38.44,
CCc1nc2ccccc2c(=O)n1CC(=O)Nc1ccc(S(=O)(=O)NC(=O)Nc2ccccc2)cc1,,,21.55,
Cc1nc2ccccc2n(CC(=O)Nc2ccc(S(=O)(=O)NC(=S)Nc3ccccc3)cc2)c1=O,,5.40,,
O=S(=O)(NCCc1ccc(S(=O)(=O)NC(=S)Nc2ccc(Cl)cc2)cc1)c1ccccc1,,4.48,,
Cc1nc2ccccc2c(=O)n1CC(=O)Nc1ccc(S(=O)(=O)NC(=O)Nc2ccccc2)cc1,,,19.66,
COc1ccc(NC(=S)NS(=O)(=O)c2ccc(CCNS(=O)(=O)c3ccc(C)cc3)cc2)cc1,,,,Not Active
O=S(=O)(NCCc1ccc(S(=O)(=O)NC(=S)Nc2ccc(Cl)cc2)cc1)c1ccc(Cl)cc1,,4.48,,
O=C(NC1CCCCC1)NS(=O)(=O)c1ccc(CCNS(=O)(=O)c2ccccc2)cc1,,4.90,,
CCc1nc2ccccc2c(=O)n1CC(=O)Nc1ccc(S(=O)(=O)NC(=O)NC2CCCCC2)cc1,5.94,6.23,34.25,
CC1CCC(NC(=O)NS(=O)(=O)c2ccc(CCNS(=O)(=O)c3ccccc3)cc2)CC1 (configuration not stated),,5.47,,
Cc1nc2ccc(Br)cc2c(=O)n1CC(=O)Nc1ccc(S(=O)(=O)NC(=O)Nc2ccccc2)cc1,,,21.33,

SMILES,pEC50 [1],pIC50 [2],Activity (Rattus norvegicus) [%],IC50 [2]
Cc1ccc(NC(=S)NS(=O)(=O)c2ccc(CCNS(=O)(=O)c3ccccc3)cc2)cc1,,4.30,,
Cc1nc2ccccc2n(CC(=O)Nc2ccc(S(=O)(=O)NC(=O)NC3CCCCC3)cc2)c1=O,,5.40,,
CC(=O)Nc1ccc(S(=O)(=O)NCCc2ccc(S(=O)(=O)NC(=O)NC3CCC(C)CC3)cc2)cc1 (configuration not stated),,5.15,,
COc1ccc(NC(=S)NS(=O)(=O)c2ccc(CCNS(=O)(=O)c3ccccc3)cc2)cc1,,3.00,,
COc1ccc(-n2c(SCC(=O)Nc3ccc(S(=O)(=O)NC(=O)Nc4ccccc4)cc3)nc3ccccc3c2=O)cc1,,,24.58,
CCCCNC(=O)NS(=O)(=O)c1ccc(NC(=O)Cn2c(=O)c(C)nc3ccccc32)cc1,,5.40,,
Cc1nc2ccc(Br)cc2c(=O)n1CC(=O)Nc1ccc(S(=O)(=O)NC(=O)NC2CCCCC2)cc1,5.77,6.45,42.5,
COc1ccc(NC(=S)NS(=O)(=O)c2ccc(CCNS(=O)(=O)c3ccc(Cl)cc3)cc2)cc1,,4.48,,
Cc1nc2ccccc2n(CC(=O)Nc2ccc(S(=O)(=O)NC(=S)NC3CCCCC3)cc2)c1=O,,5.40,,
CC(=O)Nc1ccc(S(=O)(=O)NCCc2ccc(S(=O)(=O)NC(=O)NC3CCC(C)CC3)cc2)cc1C (configuration not stated),,5.62,,
CCCCNC(=O)NS(=O)(=O)c1ccc(NC(=O)CSc2nc3ccccc3c(=O)n2-c2ccc(C)cc2)cc1,5.82,6.36,37.76,
CC1CCC(NC(=O)NS(=O)(=O)c2ccc(CCNS(=O)(=O)c3ccc(Br)cc3)cc2)CC1 (configuration not stated),,5.80,,
Cc1nc2ccccc2c(=O)n1CC(=O)Nc1ccc(S(=O)(=O)NC(=O)NC2CCCCC2)cc1,5.57,6.33,38.64,
CCCCNC(=O)NS(=O)(=O)c1ccc(NC(=O)CSc2nc3ccccc3c(=O)n2-c2ccc(OC)cc2)cc1,6.00,6.43,41.23,
O=C(NC1CCCCC1)NS(=O)(=O)c1ccc(CCNS(=O)(=O)c2ccc(Cl)cc2)cc1,,5.51,,
Cc1nc2ccccc2n(CC(=O)Nc2ccc(S(=O)(=O)NC(=O)Nc3ccccc3)cc2)c1=O,,5.40,,
Cc1ccc(-n2c(SCC(=O)Nc3ccc(S(=O)(=O)NC(=O)Nc4ccccc4)cc3)nc3ccccc3c2=O)cc1,5.51,6.43,33.42,
CCC1=C(C)CN(C(=O)NCCc2ccc(S(=O)(=O)NC(=O)N[C@H]3CC[C@H](C)CC3)cc2)C1=O [GLIMEPIRIDE],6.10,,,
